Data from patent US8901120B2, “Substituted N-phenylpyrimidin-2-amine analogs as inhibitors of the Axl kinase” (University of Utah Research Foundation, priority 2011, dated 2014).

Legend:
[1] = test system: phosphorylated Akt (Ser473); assay: GAS6-Axl signalling assay, phosphorylated Akt; format: cell-based; conditions: Homo sapiens; PSN-1 and PL45 cells, in the presence of Gas6, FIG. 8A; read-out: IC50, inhibition of phosphorylated Akt levels
Method: (§1) Cell lines were seeded in 1 ml of the appropriate growth media with 10% FBS into 6-well plates (8×10^5 cells/well) and incubated overnight at 37° C. and 5% CO2. The following day, serum-containing growth media was replaced by serum-free media and incubated for 4 hr, and then test compounds were added to the cells at desired concentrations and incubated for an additional 2 hr. To stimulate Axl signaling, Gas6 was added to each well to a concentration of 3 μg/ml and incubated for 10 min. The cells were lysed immediately and the lysates used in a multiplex ELISA kit (Meso Scale Discovery, Gaithersburg, Md.) to quantitate the phosphorylated AKT (at position Ser473′ “pAkt”) or phosphorylated Axl (“pAxl”).
To further explore the activity of a representative compound, 2-((5-chloro-2-((4-((4-methylpiperazin-1-yl)methyl)phenyl)amino)pyrimidin-4-yl)amino)-N,N-dimethylbenzenesulfonamide, of inhibiting Axl in a cell line system, the effect of the test compound on Akt phosphorylation (at the Ser473 position) was determined. The effect on Akt phosphorylation was assessed in two cell-lines (see FIG. 8A): PSN-1 and PL45. The overall method was as described above. Briefly, the cells were treated as indicated and lysates from these treatments were analyzed for phosphorylated Akt (Ser473) as described above.

PSN-1 cells = assay: Tumor xenograft animal model; format: in vivo, mouse; conditions: PSN-1 xenograft, 50 mg/kg oral gavage daily (M-F)
Method: The in vivo activity of the foregoing compound was assessed in a tumor xenograft model in mouse. PSN-1 cells were cultured as described above and harvested. Cells (2 to 5×10^6 in 100 μl culture media) were implanted subcutaneously in the right hind flank of athymic nu/nu nude mice (5 to 6 weeks old, 18-22 g). Following implantation, the tumors are allowed to grow to 100 mm^3 before the animals are randomized into treatment groups (vehicle and test compound). Day 1 of study corresponds to the day that the animals receive their first dose of test compound (2-((5-chloro-2-((4-((4-methylpiperazin-1-yl)methyl)phenyl)amino)pyrimidin-4-yl)amino)-N,N-dimethylbenzenesulfonamide). The vehicle for this study was 5% EtOH, 45% PEG 400, and 50% water, and animals were dosed with either vehicle or test compound dissolved in this vehicle by oral gavage. The dose level was 50 mg/kg and dosing frequency was daily (M-F) with the test compound with recovery on the weekend.
The test compound was efficacious in limiting tumor growth, achieving about a 50% reduction in tumor volume at this dose level during this dosing period (FIG. 15).

[2] = Pharmacokinetics after oral dosing; format: in vivo; conditions: mouse, mice, 50 mg/kg orally, plasma
Method: Mice were dosed orally with 50 mg/kg of the title compound. Blood was collected at the indicated time points (see FIG. 16).

[3] = test system: phosphorylated Axl (pAxl); assay: GAS6-Axl signalling assay, autophosphorylation of Axl; format: cell-based, Human; conditions: pancreatic cancer cell lines, GAS6 stimulation, FIG. 8B
Method: as §1

[4] = test system: Axl and the related members of the TAM family of kinases; assay: Kinase profiling, Axl and TAM family; format: biochemical; conditions: 200 nM test compound, ATP at Km apparent, FIG. 9
Method: (§2) The specificity of kinase inhibition was assessed with a representative compound, 2-((5-chloro-2-((4-((4-methylpiperazin-1-yl)methyl)phenyl)amino)pyrimidin-4-yl)amino)-N,N-dimethylbenzenesulfonamide, by determining the activity of this test compound against a panel of protein kinases. Kinase profiling was performed against a focus panel of kinases relevant to PDK1 signaling and other known oncogenic kinases. The panel comprised 75 distinct protein kinases, and data are shown for a subset of 39 kineases (see FIG. 9). […] The results from this screen confirmed good activity against Axl and the related members of the TAM family of kinases.

Aurora family of kinases = assay: Kinase profiling, Aurora family; format: biochemical; conditions: 200 nM test compound, ATP at Km apparent, FIG. 9
Method: as §2

JAK family of kinases = assay: Kinase profiling, JAK family; format: biochemical; conditions: 200 nM test compound, ATP at Km apparent, FIG. 9
Method: as §2

pancreatic cancer cells = assay: Cell migration assay (collagen I Platypus plates); format: cell-based; conditions: 18 hours migration, with Gas6, FIG. 10
Method: In this system, a gel prevents attachment of cells in a circle. The gel dissolves by exposure to the media, allowing cells to migrate into the open area. Cells migrated for 18 hours before fixation and staining. The extent of cell migration was determined by measuring the open surface in the inner circle of the well.

[5] = test system: sAxl in PL45 and PSN-1 cells; assay: Release of sAxl into cell culture media (ELISA); format: cell-based, Human; conditions: PL45 and PSN-1, serum-free, 24 hours, vs vehicle, FIG. 11
Method: Cell lines were plated and incubated overnight as described above. The following day the media was changed to serum-free and the cells were treated as indicated as indicated. After 24 hours, the media from the treatments were analyzed for sAxl (R&D Systems, Minneapolis, Minn.).
The proteolytic processing of the extracellular domain of the Axl receptor is a known event downstream of Axl activation and results in the release of soluble Axl (sAxl) into the cell culture media (in vitro) or into the blood stream (in vivo).

IC50 [1]: ~0.3 µM | AUC(0-t) [2]: 0.507 µg·h/mL | Cmax [2]: 0.604 µg/mL | Tmax [2]: 15 min | half-life [2]: 66 min | activity against Axl and TAM family kinases in kinase profiling [4]: good activity | activity against Aurora family kinases in kinase profiling (Aurora family of kinases): significant activity | activity against JAK family kinases in kinase profiling (JAK family of kinases): significant activity
SMILES: CN1CCN(Cc2ccc(Nc3ncc(Cl)c(Nc4ccccc4S(=O)(=O)N(C)C)n3)cc2)CC1 [2-((5-chloro-2-((4-((4-methylpiperazin-1-yl)methyl)phenyl)amino)pyrimidin-4-yl)amino)-N,N-dimethylbenzenesulfonamide]
impact on body weight (PSN-1 cells; FIG. 14): no apparent impact | reduction in tumor volume (PSN-1 cells; FIG. 15): ~50% | inhibition of autophosphorylation of Axl [3]: dramatically inhibited | inhibition of Gas6-induced migration and invasion (pancreatic cancer cells): inhibited | reduction in sAxl levels in conditioned media [5]: significant dose-dependent reductions
